Test results reported in patent publication US10604524B2, “Pyrropyrimidine compounds as MNKs inhibitors” (LIFEARC, priority 2015, dated 2020).

Tests used:
[1] = system: phosphorylation of eIF4E at ser209 in MV4.11 cell line; test: cells; type: cell-based; conditions: Homo sapiens; MV4.11 cells, 1.5 hr compound incubation, average of at least 2 independent experiments; read-out: plc50 elF4E (converted)
Procedure: MNK activity in cells was measured by monitoring the phosphorylation of eIF4E at ser209, the known endogenous substrate of MNK1/2, in cell lysates. […] The assay detection is based on the formation of sandwich antibody complexes coupled to donor and acceptor beads. Excitation at 680 nm causes the transfer of a singlet oxygen species between donor and acceptor beads when they are in close proximity by binding to the analyte […], which results in the emission of light at 520-620 nm.
Cells were then lysed and the Aphascreen Surefire protocol followed according to manufacturer's recommendations. 8 ul Acceptor beads (1:50 dilution in kit activation buffer) was added to lysate, shaken 150 rpm for 2 min and incubated for 1.5 hr at room temperature. 3 ul Donor beads (1:20 dilution in kit dilution buffer) were then added, shaken 150 rpm for 2 min and incubated for a further 1.5 hr at room temperature after which the plates were read on Pherastar FS using Alphascreen optic module.
Data were normalised relative to untreated DMSO only controls and curves repeated in duplicate within experiments. Data reported are averages of at least 2 independent experiments.

[2] = target: Full-length human MNK1 (Homo sapiens, UniProt Q9BUB5, T385D); test: MNK1 biochemical IC50 assay (Caliper mobility shift)
[3] = target: Full-length human MNK2 (Homo sapiens, UniProt Q9HBH9, T379D); test: MNK2 biochemical IC50 assay (Caliper mobility shift)
Full-length human MNK2, sequence (Q9HBH9 whole entry T379D): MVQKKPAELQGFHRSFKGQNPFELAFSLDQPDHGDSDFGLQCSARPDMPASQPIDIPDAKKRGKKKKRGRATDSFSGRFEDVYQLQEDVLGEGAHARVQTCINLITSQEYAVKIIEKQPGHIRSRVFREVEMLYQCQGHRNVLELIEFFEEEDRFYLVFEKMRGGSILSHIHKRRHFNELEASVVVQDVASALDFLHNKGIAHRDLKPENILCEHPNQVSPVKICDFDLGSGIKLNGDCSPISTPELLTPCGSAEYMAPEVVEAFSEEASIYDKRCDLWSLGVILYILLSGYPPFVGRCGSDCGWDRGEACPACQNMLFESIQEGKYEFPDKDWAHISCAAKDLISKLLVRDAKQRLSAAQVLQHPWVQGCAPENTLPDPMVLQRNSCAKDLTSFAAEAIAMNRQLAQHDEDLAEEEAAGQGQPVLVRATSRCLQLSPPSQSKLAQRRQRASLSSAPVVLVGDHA

Full-length human MNK1, sequence (Q9BUB5 1-424 isoform Q9BUB5-2 T344D): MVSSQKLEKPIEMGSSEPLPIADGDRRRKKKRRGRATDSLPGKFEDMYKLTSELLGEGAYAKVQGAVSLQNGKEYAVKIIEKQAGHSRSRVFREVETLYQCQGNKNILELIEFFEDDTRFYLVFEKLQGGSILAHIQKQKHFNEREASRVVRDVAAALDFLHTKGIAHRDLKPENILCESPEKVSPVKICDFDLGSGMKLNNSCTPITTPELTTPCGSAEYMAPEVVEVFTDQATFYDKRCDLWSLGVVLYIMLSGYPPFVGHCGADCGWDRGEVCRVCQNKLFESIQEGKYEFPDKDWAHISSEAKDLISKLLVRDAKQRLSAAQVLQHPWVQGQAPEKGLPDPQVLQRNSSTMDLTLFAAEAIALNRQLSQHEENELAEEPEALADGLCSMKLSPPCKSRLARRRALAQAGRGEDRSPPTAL

## CO[C@H]1CCC[C@@H](Oc2cc(F)ccc2Nc2ncnc3ccn(C)c23)C1 [Example 20, N-[4-fluoro-2-[(1R,3S)-3-methoxycyclohexoxy]phenyl]-5-methyl-pyrrolo[3,2-d]pyrimidin-4-amine]
[1]
  IC50: 200 nM
[2]
  IC50: 3160 nM
[3]
  IC50: 631 nM

## Cn1ccc2ncnc(Nc3ccc(F)cc3O[C@@H]3CCCOC3)c21 [Example 18, N-[4-fluoro-2-[(3R)-tetrahydropyran-3-yl]oxy-phenyl]-5-methyl-pyrrolo[3,2-d]pyrimidin-4-amine]
[2]
  IC50: 63.1 nM
[3]
  IC50: 31.6 nM

## CC(C)Oc1nc(Cl)ccc1Nc1ncnc2ccn(C)c12 [Example 6, N-(6-chloro-2-isopropoxy-3-pyridyl)-5-methyl-pyrrolo[3,2-d]pyrimidin-4-amine]
[1]
  IC50: 63.1 nM
[2]
  IC50: 251 nM
[3]
  IC50: 63.1 nM

## CC(C)Oc1cc(F)ccc1Nc1ncnc2ccn(CCO)c12 [Example 4, 2-[4-(4-Fluoro-2-isopropoxy-anilino)pyrrolo[3,2-d]pyrimidin-5-yl]ethanol]
[1]
  IC50: 251 nM
[2]
  IC50: 2000 nM
[3]
  IC50: 1260 nM

## CO[C@@H]1CCCC[C@H]1Oc1cc(F)ccc1Nc1ncnc2ccn(C)c12 [Example 38, N-[4-fluoro-2-[(1R,2R)-2-methoxycyclohexoxy]phenyl]-5-methyl-pyrrolo[3,2-d]pyrimidin-4-amine]
[1]
  IC50: 39.8 nM
[2]
  IC50: 2000 nM
[3]
  IC50: 316 nM

## Cn1ccc2ncnc(Nc3ccc(F)cc3O[C@H]3CCOC3)c21 [Example 15, N-[4-fluoro-2-[(3S)-tetrahydrofuran-3-yl]oxy-phenyl]-5-methyl-pyrrolo[3,2-d]pyrimidin-4-amine]
[1]
  IC50: 31.6 nM
[2]
  IC50: 398 nM
[3]
  IC50: 158 nM

## Fc1ccc2c(c1)CCN2c1ncnc2cc[nH]c12 [Example 46, 4-(5-Fluoroindolin-1-yl)-5H-pyrrolo[3,2-d]pyrimidine]
[2]
  IC50: 39.8 nM
[3]
  IC50: 31.6 nM

## CC(C)Oc1cc(C#N)ccc1Nc1ncnc2ccn(C)c12 [Example 7, 3-Isopropoxy-4-[(5-methylpyrrolo[3,2-d]pyrimidin-4-yl)amino]benzonitrile]
[1]
  IC50: 31.6 nM
[2]
  IC50: 50.1 nM
[3]
  IC50: 25.1 nM

## CCCn1ccc2ncnc(Nc3ccc(F)cc3OC(C)C)c21 [Example 2, N-(4-fluoro-2-isopropoxy-phenyl)-5-propyl-pyrrolo[3,2-d]pyrimidin-4-amine]
[1]
  IC50: 158 nM
[2]
  IC50: 501 nM
[3]
  IC50: 398 nM

## Cn1ccc2ncnc(Nc3ccc(F)cc3O[C@H]3CC[C@H](O)CC3)c21 [Example 12, 4-[5-fluoro-2-[(5-methylpyrrolo[3,2-d]pyrimidin-4-yl)amino]phenoxy]cyclohexanol]
[1]
  IC50: 15.8 nM
[2]
  IC50: 200 nM
[3]
  IC50: 79.4 nM

## CC(C)Oc1cc(F)ccc1Nc1ncnc2ccn(C)c12 [Example 27, N-(4-fluoro-2-isopropoxy-phenyl)-5-methyl-pyrrolo[3,2-d]pyrimidin-4-amine]
[1]
  IC50: 20 nM
[2]
  IC50: 126 nM
[3]
  IC50: 50.1 nM

## CC(C)Oc1cc(F)ccc1Nc1ncnc2cc(C(=O)NCC3CCNCC3)n(C)c12 [Example 41, 4-{[4-Fluoro-2-(propan-2-yloxy)phonyl]amino}-5-methyl-N-(piperidin-4-ylmethyl)-5H-pyrrolo[3,2-d]pyrimidine-6-carboxamide]
[2]
  IC50: 39.8 nM
[3]
  IC50: 39.8 nM

## Cn1ccc2ncnc(Nc3ccc(F)cc3O[C@H]3CCCOC3)c21 [Example 19, N-[4-fluoro-2-[(3S)-tetrahydropyran-3-yl]oxy-phenyl]-5-methyl-pyrrolo[3,2-d]pyrimidin-4-amine]
[2]
  IC50: 501 nM
[3]
  IC50: 126 nM

## Cn1ccc2ncnc(Nc3ccc(F)cc3OC3CCCC3)c21 [Example 25, N-[2-(cyclopentyloxy)-4-fluorophenyl]-5-methyl-5H-pyrrolo[3,2-d]pyrimidin-4-amine]
[2]
  IC50: 126 nM
[3]
  IC50: 31.6 nM

## Cn1ccc2ncnc(Nc3ccc(F)cc3OC(CF)CF)c21 [Example 11, N-[4-fluoro-2-[2-fluoro-1-(fluoromethyl)ethoxy]phenyl]-5-methyl-pyrrolo[3,2-d]pyrimidin-4-amine]
[2]
  IC50: 158 nM
[3]
  IC50: 50.1 nM
